Test results reported in patent US12697330B2, “Therapeutic methods using vadadustat” (Akebia Therapeutics, Inc., priority 2021, dated 2026).

How the values were obtained:
[1] = system: erythropoietin (EPO); assay: Phase 1b study: pharmacodynamics, Baseline-unadjusted serum EPO concentration; assay type: in vivo, human
Procedure: PK and EPO Sample. For each vadadustat treatment group, blood samples for vadadustat PK (and its metabolites) and EPO were collected at the following time points: Day 1: predose, and at 1, 2, 3, 4, 5, 8, and 11 hours post dose; Day 2: 24 hours (−2 hours) post Day 1 dose; Day 6: blood sample for EPO analysis only was collected predose on Day 6; Day 8: predose, and at 1, 2, 3, 4, 5, 8, 11 hours post dose, Day 10 or EOT: predose. For the ESA treatment group, blood samples for analysis of EPO were collected at the following time points: Day 1: predose, and at 0.25, 1, 2, 3, 4, 5, 8, and 11 hours post dose; Day 2: 24 hours (−2 hours) post Day 1 dose.
PD Sampling. For all vadadustat and ESA treatment groups, in addition to EPO, blood samples for Hb, reticulocytes and iron indices for PD analyses were collected on Day 1, Day 6 and Day 10. Hepcidin were collected predose on Day 1, Day 6, and Day 10 for PD analysis.
Secondary Endpoints. For each treatment group, PD parameters included, but were not limited to, as deemed appropriate: hepcidin, erythropoietin (EPO), iron indices (iron, ferritin, total iron-binding capacity [TIBC], TSAT), Hb, and reticulocytes.
The summary of serum concentration of Baseline-unadjusted EPO by time for the vadadustat treatment groups in the PK population are presented in FIGS. 1a-11b and FIGS. 12a-12b. The summary of PD parameters for Baseline-unadjusted serum EPO concentration for vadadustat treatment groups by dosing days for the PK population are summarized in Table 2.

[2] = system: erythropoietin (EPO); assay: Phase 2 study, Main Study: pharmacodynamics, Baseline-Unadjusted serum EPO concentration; assay type: in vivo, human
Procedure: PK/PD Endpoints. An exposure-response analysis of vadadustat and PD measures were conducted as deemed appropriate. The PK parameters included (but were not limited to) the following: area under concentration-time curve from dosing to last measurable concentration (AUClast), area under concentration-time curve from dosing to infinity (AUCinf), Cmax, apparent total body clearance (CL/F), apparent volume of distribution (Vd/F), and terminal half-life (t1/2). The PD parameters included (but were not limited to) the following: EPO, reticulocytes, iron, ferritin, TIBC, and hepcidin.
PK population: included all randomized subjects who received study drug (vadadustat or epoetin alfa) and had enough drug concentrations to estimate AUC and Cmax. Analysis of this population was based on the dose amount taken at the date of PK sampling for the vadadustat group.
PD parameters for serum EPO concentration are presented by epoetin alfa stratification for vadadustat treatment groups in Table 7, Table 8a and Table 8b (baseline-unadjusted) and Table 9, Table 10a and Table 10b (baseline-adjusted).

[3] = Vada 150 mg, Week 11, High Epoetin Alfa Stratum >90 to <300 U/kg/week
[4] = Vada 150 mg, Week 11, Low Epoetin Alfa Stratum ≤90 U/kg/week
[5] = Vada 300 mg, Week 1 + 1, High Epoetin Alfa Stratum >90 to <300 U/kg/week
[6] = Vada 300 mg, Week 1 + 1, Low Epoetin Alfa Stratum ≤90 U/kg/week
[7] = Vada 300 mg, Week 1, High Epoetin Alfa Stratum >90 to <300 U/kg/week
[8] = Vada 300 mg, Week 1, Low Epoetin Alfa Stratum ≤90 U/kg/week
[9] = Vada 300 mg, Week 11, High Epoetin Alfa Stratum >90 to <300 U/kg/week
[10] = Vada 300 mg, Week 11, Low Epoetin Alfa Stratum ≤90 U/kg/week
[11] = Vada 300 mg, Week 13, High Epoetin Alfa Stratum >90 to <300 U/kg/week
[12] = Vada 450 mg, Week 1 + 1, High Epoetin Alfa Stratum >90 to <300 U/kg/week
[13] = Vada 450 mg, Week 1 + 1, Low Epoetin Alfa Stratum ≤90 U/kg/week
[14] = Vada 450 mg, Week 1, High Epoetin Alfa Stratum >90 to <300 U/kg/week
[15] = Vada 450 mg, Week 1, Low Epoetin Alfa Stratum ≤90 U/kg/week
[16] = Vada 450 mg, Week 11, High Epoetin Alfa Stratum >90 to <300 U/kg/week
[17] = Vada 450 mg, Week 11, Low Epoetin Alfa Stratum ≤90 U/kg/week
[18] = Vada 450 mg, Week 13, Low Epoetin Alfa Stratum ≤90 U/kg/week
[19] = Vada 600 mg, Week 1 + 1, High Epoetin Alfa Stratum >90 to <300 U/kg/week
[20] = Vada 600 mg, Week 1, High Epoetin Alfa Stratum >90 to <300 U/kg/week
[21] = Vada 600 mg, Week 11, High Epoetin Alfa Stratum >90 to <300 U/kg/week
[22] = Vada 600 mg, Week 11, Low Epoetin Alfa Stratum ≤90 U/kg/week
[23] = Vada 600 mg, Week 13, High Epoetin Alfa Stratum >90 to <300 U/kg/week
[24] = Vada 600 mg, Week 13, Low Epoetin Alfa Stratum ≤90 U/kg/week
[25] = Vada 750 mg, Week 11, High Epoetin Alfa Stratum >90 to <300 U/kg/week
[26] = Vada 750 mg, Week 11, Low Epoetin Alfa Stratum ≤90 U/kg/week
[27] = Vada 750 mg, Week 13, High Epoetin Alfa Stratum >90 to <300 U/kg/week
[28] = Vada 750 mg, Week 13, Low Epoetin Alfa Stratum ≤90 U/kg/week
[29] = Vada 900 mg, Week 11, High Epoetin Alfa Stratum >90 to <300 U/kg/week
[30] = Vada 900 mg, Week 11, Low Epoetin Alfa Stratum ≤90 U/kg/week

## O=C(O)CNC(=O)c1ncc(-c2cccc(Cl)c2)cc1O [Compound 1, {[5-(3-chlorophenyl)-3-hydroxypyridine-2-carbonyl]amino}acetic acid]
[1]; Vada 600 mg QD, Day 1
  Baseline-Unadjusted serum EPO Tmax, Median: 10.09 h
  Baseline-unadjusted serum EPO AUC0-11, Mean (SD): 319 (150) h · mU/mL
[1]; Vada 600 mg QD, Day 8
  Baseline-Unadjusted serum EPO Tmax, Median: 4.50 h
[1]; Vada 600 mg QD, Day 8 (AUClast)
  Baseline-unadjusted serum EPO AUC0-11, Mean (SD): 410 (286) h · mU/mL
[1]; Vada 750 mg QD, Day 1
  Baseline-Unadjusted serum EPO Tmax, Median: 10.94 h
  Baseline-unadjusted serum EPO AUC0-11, Mean (SD): 569 (623) h · mU/mL
[1]; Vada 750 mg QD, Day 8
  Baseline-Unadjusted serum EPO Tmax, Median: 5.01 h
[1]; Vada 750 mg QD, Day 8 (AUClast)
  Baseline-unadjusted serum EPO AUC0-11, Mean (SD): 677 (533) h · mU/mL
[1]; Vada 900 mg QD, Day 1
  Baseline-Unadjusted serum EPO Tmax, Median: 10.00 h
  Baseline-unadjusted serum EPO AUC0-11, Mean (SD): 455 (438) h · mU/mL
[1]; Vada 900 mg QD, Day 8
  Baseline-Unadjusted serum EPO Tmax, Median: 10.00 h
[1]; Vada 900 mg QD, Day 8 (AUClast)
  Baseline-unadjusted serum EPO AUC0-11, Mean (SD): 981 (1854) h · mU/mL
[2]; [3]
  Baseline-Unadjusted serum EPO AUC0-5, Geometric Mean: 143.0 µg·h/mL
  Baseline-Unadjusted serum EPO Cmax, Geometric Mean: 39.0 µg/mL
  Baseline-Unadjusted serum EPO Tmax, Median: 1.63 h
[2]; [4]
  Baseline-Unadjusted serum EPO AUC0-5, Geometric Mean: 37.6 µg·h/mL
  Baseline-Unadjusted serum EPO Cmax, Geometric Mean: 10.7 µg/mL
  Baseline-Unadjusted serum EPO Tmax, Median: 4.78 h
[2]; [5]
  Baseline-Unadjusted serum EPO AUC0-5, Geometric Mean: 74.9 µg·h/mL
  Baseline-Unadjusted serum EPO Cmax, Geometric Mean: 20.5 µg/mL
  Baseline-Unadjusted serum EPO Tmax, Median: 2.02 h
[2]; [6]
  Baseline-Unadjusted serum EPO AUC0-5, Geometric Mean: 65.7 µg·h/mL
  Baseline-Unadjusted serum EPO Cmax, Geometric Mean: 19.3 µg/mL
  Baseline-Unadjusted serum EPO Tmax, Median: 2.75 h
[2]; [7]
  Baseline-Unadjusted serum EPO AUC0-5, Geometric Mean: 56.0 µg·h/mL
  Baseline-Unadjusted serum EPO Cmax, Geometric Mean: 17.5 µg/mL
  Baseline-Unadjusted serum EPO Tmax, Median: 2.00 h
[2]; [8]
  Baseline-Unadjusted serum EPO AUC0-5, Geometric Mean: 58.5 µg·h/mL
  Baseline-Unadjusted serum EPO Cmax, Geometric Mean: 17.6 µg/mL
  Baseline-Unadjusted serum EPO Tmax, Median: 4.50 h
[2]; [9]
  Baseline-Unadjusted serum EPO AUC0-5, Geometric Mean: 84.4 µg·h/mL
  Baseline-Unadjusted serum EPO Cmax, Geometric Mean: 23.5 µg/mL
  Baseline-Unadjusted serum EPO Tmax, Median: 0.97 h
[2]; [10]
  Baseline-Unadjusted serum EPO AUC0-5, Geometric Mean: 65.2 µg·h/mL
  Baseline-Unadjusted serum EPO Cmax, Geometric Mean: 20.0 µg/mL
  Baseline-Unadjusted serum EPO Tmax, Median: 3.29 h
[2]; [11]
  Baseline-Unadjusted serum EPO AUC0-5, Geometric Mean: 125 µg·h/mL
  Baseline-Unadjusted serum EPO Cmax, Geometric Mean: 39.2 µg/mL
  Baseline-Unadjusted serum EPO Tmax, Median: 0 h
[2]; [12]
  Baseline-Unadjusted serum EPO AUC0-5, Geometric Mean: 61.6 µg·h/mL
  Baseline-Unadjusted serum EPO Cmax, Geometric Mean: 18.1 µg/mL
  Baseline-Unadjusted serum EPO Tmax, Median: 0 h
[2]; [13]
  Baseline-Unadjusted serum EPO AUC0-5, Geometric Mean: 80.2 µg·h/mL
  Baseline-Unadjusted serum EPO Cmax, Geometric Mean: 23.9 µg/mL
  Baseline-Unadjusted serum EPO Tmax, Median: 4.51 h
[2]; [14]
  Baseline-Unadjusted serum EPO AUC0-5, Geometric Mean: 79.9 µg·h/mL
  Baseline-Unadjusted serum EPO Cmax, Geometric Mean: 23.4 µg/mL
  Baseline-Unadjusted serum EPO Tmax, Median: 4.53 h
[2]; [15]
  Baseline-Unadjusted serum EPO AUC0-5, Geometric Mean: 76.4 µg·h/mL
  Baseline-Unadjusted serum EPO Cmax, Geometric Mean: 25.5 µg/mL
  Baseline-Unadjusted serum EPO Tmax, Median: 4.50 h
[2]; [16]
  Baseline-Unadjusted serum EPO AUC0-5, Geometric Mean: 97.5 µg·h/mL
  Baseline-Unadjusted serum EPO Cmax, Geometric Mean: 24.9 µg/mL
  Baseline-Unadjusted serum EPO Tmax, Median: 0.88 h
[2]; [17]
  Baseline-Unadjusted serum EPO AUC0-5, Geometric Mean: 65.1 µg·h/mL
  Baseline-Unadjusted serum EPO Cmax, Geometric Mean: 17.7 µg/mL
  Baseline-Unadjusted serum EPO Tmax, Median: 2.08 h
[2]; [18]
  Baseline-Unadjusted serum EPO AUC0-5, Geometric Mean: 88.4 µg·h/mL
  Baseline-Unadjusted serum EPO Cmax, Geometric Mean: 28.8 µg/mL
  Baseline-Unadjusted serum EPO Tmax, Median: 3.94 h
[2]; [19]
  Baseline-Unadjusted serum EPO AUC0-5, Geometric Mean: 89.9 µg·h/mL
  Baseline-Unadjusted serum EPO Cmax, Geometric Mean: 27.2 µg/mL
  Baseline-Unadjusted serum EPO Tmax, Median: 2.47 h
[2]; [20]
  Baseline-Unadjusted serum EPO AUC0-5, Geometric Mean: 102.0 µg·h/mL
  Baseline-Unadjusted serum EPO Cmax, Geometric Mean: 33.2 µg/mL
  Baseline-Unadjusted serum EPO Tmax, Median: 0 h
[2]; [21]
  Baseline-Unadjusted serum EPO AUC0-5, Geometric Mean: 83.2 µg·h/mL
  Baseline-Unadjusted serum EPO Cmax, Geometric Mean: 23.4 µg/mL
  Baseline-Unadjusted serum EPO Tmax, Median: 0.92 h
[2]; [22]
  Baseline-Unadjusted serum EPO AUC0-5, Geometric Mean: 53.8 µg·h/mL
  Baseline-Unadjusted serum EPO Cmax, Geometric Mean: 18.5 µg/mL
  Baseline-Unadjusted serum EPO Tmax, Median: 4.50 h
[2]; [23]
  Baseline-Unadjusted serum EPO AUC0-5, Geometric Mean: 44.0 µg·h/mL
  Baseline-Unadjusted serum EPO Cmax, Geometric Mean: 49.9 µg/mL
  Baseline-Unadjusted serum EPO Tmax, Median: 4.63 h
[2]; [24]
  Baseline-Unadjusted serum EPO AUC0-5, Geometric Mean: 59.4 µg·h/mL
  Baseline-Unadjusted serum EPO Cmax, Geometric Mean: 20.7 µg/mL
  Baseline-Unadjusted serum EPO Tmax, Median: 7.08 h
[2]; [25]
  Baseline-Unadjusted serum EPO AUC0-5, Geometric Mean: 84.6 µg·h/mL
  Baseline-Unadjusted serum EPO Cmax, Geometric Mean: 21.9 µg/mL
  Baseline-Unadjusted serum EPO Tmax, Median: 4.06 h
[2]; [26]
  Baseline-Unadjusted serum EPO AUC0-5, Geometric Mean: 41.3 µg·h/mL
  Baseline-Unadjusted serum EPO Cmax, Geometric Mean: 12.5 µg/mL
  Baseline-Unadjusted serum EPO Tmax, Median: 4.50 h
[2]; [27]
  Baseline-Unadjusted serum EPO AUC0-5, Geometric Mean: 42.9 µg·h/mL
  Baseline-Unadjusted serum EPO Cmax, Geometric Mean: 14.1 µg/mL
  Baseline-Unadjusted serum EPO Tmax, Median: 0 h
[2]; [28]
  Baseline-Unadjusted serum EPO AUC0-5, Geometric Mean: 40.8 µg·h/mL
  Baseline-Unadjusted serum EPO Cmax, Geometric Mean: 13.2 µg/mL
  Baseline-Unadjusted serum EPO Tmax, Median: 4.50 h
[2]; [29]
  Baseline-Unadjusted serum EPO AUC0-5, Geometric Mean: 96.5 µg·h/mL
  Baseline-Unadjusted serum EPO Cmax, Geometric Mean: 30.2 µg/mL
  Baseline-Unadjusted serum EPO Tmax, Median: 0 h
[2]; [30]
  Baseline-Unadjusted serum EPO AUC0-5, Geometric Mean: 81.0 µg·h/mL
  Baseline-Unadjusted serum EPO Cmax, Geometric Mean: 24.4 µg/mL
  Baseline-Unadjusted serum EPO Tmax, Median: 0 h
